Assay results from patent US10167270B2, “Substituted quinazoline compounds and uses thereof for modulating glucocerebrosidase activity” (Northwestern University, priority 2015, dated 2019).

Biological target: Glucocerebrosidase (Homo sapiens (Human), UniProt P04062)
Experiment: Glucocerebrosidase activity assay with blue substrate (4MU-Glc)
Type: biochemical
Conditions: not given
Description: The compounds in DMSO solution 0.5 μL/well were transferred to a black 96-well plate. The final titration was 24 nM to 50 μM, 12 concentrations, 2 times dilution. […] After 5 min of incubation at room temperature, the enzyme reaction was initiated by the addition of 33 μL/well blue substrate. Final concentrations of the blue substrate (4MU-Glc) was 1.5 mM. The blue substrate reaction was terminated by the addition of 33 μL/well stop solution (1 M NaOH and 1 M glycine mixture, pH 10) after 30 min of incubation at 37° C. The fluorescence was then measured in the Biotek Synergy H1 multi-mode plate reader with Ex=365 nm and Em=440 nm.
Additional compounds were prepared and tested according to the procedures provided in the examples above.
Additional substituted quinazoline compounds were prepared and tested according to the procedures provided in the examples above.

Sequence of Glucocerebrosidase (P04062 40-536): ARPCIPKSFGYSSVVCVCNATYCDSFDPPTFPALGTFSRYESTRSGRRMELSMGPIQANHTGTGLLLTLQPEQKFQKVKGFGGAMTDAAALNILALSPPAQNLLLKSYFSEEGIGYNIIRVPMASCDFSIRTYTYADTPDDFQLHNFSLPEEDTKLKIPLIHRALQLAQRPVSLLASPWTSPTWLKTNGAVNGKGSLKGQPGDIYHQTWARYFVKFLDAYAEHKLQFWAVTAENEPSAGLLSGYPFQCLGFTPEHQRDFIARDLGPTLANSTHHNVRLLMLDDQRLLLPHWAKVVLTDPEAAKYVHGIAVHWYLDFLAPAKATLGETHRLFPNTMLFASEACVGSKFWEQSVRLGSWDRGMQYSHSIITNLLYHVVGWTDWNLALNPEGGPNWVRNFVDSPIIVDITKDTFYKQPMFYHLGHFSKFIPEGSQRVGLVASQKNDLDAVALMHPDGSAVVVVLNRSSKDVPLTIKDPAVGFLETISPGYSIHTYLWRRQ

Row | Compound | Activity AC50 or IC50 (activator)
1 | CN(CCCCCCCCCCN(C)c1nc(-c2cccnc2)nc2ccccc12)c1nc(-c2cccnc2)nc2ccccc12 [compound 112] | Weak activator

Same assay, conditions: direction not given

Row | Activity AC50 or IC50 | Compound
2 | Inactive | CN(CCOc1ccccc1)c1nc(-c2ccsc2)nc2ccccc12 [compound 126]
3 | Inactive | CN(CCOc1ccccc1)c1nc(-c2ccccc2)nc2ccccc12 [compound 131]
4 | Inactive | CN(CCOc1ccccc1)c1nc(-c2cccc(F)c2)nc2ccccc12 [compound 132]
5 | Inactive | CN(CCOc1ccccc1)c1nc(-c2ccc(F)cc2)nc2ccccc12 [compound 129]
6 | Inactive | CN(CCOc1ccccc1)c1nc(-c2cccs2)nc2ccccc12 [compound 125]

Same assay, conditions: marked (act), activator, AC50

Row | IC50 or AC50 (act) | Compound
7 | Weak (act) | CC(C)(C)Nc1nc(-c2cccnc2)nc2ccccc12 [compound 54]
8 | Weak (act) | c1ccc(C2CCCN(c3nc(-c4cccnc4)nc4ccccc34)C2)cc1 (stereo not drawn) [compound 82]

Continued, molecule first:

Row | Compound | IC50 or AC50 (act)
9 | [N-]=[N+]=Nc1c(F)c(F)c(CNc2nc(-c3cccnc3)nc3ccccc23)c(F)c1F [compound 37] | Weak (act)
10 | c1ccc(Nc2nc(-c3cccnc3)nc3ccccc23)cc1 [compound 50] | Weak (act)
11 | Nc1nc(-c2cccnc2)nc2ccccc12 [compound 35] | Weak (act)
12 | CN1CCN(c2ccc(C(=O)N3CCN(c4nc(-c5cccnc5)nc5ccccc45)CC3)cc2)CC1 [compound 38] | Weak (act)

Same assay, conditions: marked (act), activator, AC50; read-out: IC50 or AC50 (act)

Row | Compound | AC50 [µM]
13 | CN(Cc1nc2ccccc2[nH]1)c1nc(-c2cccnc2)nc2ccccc12 [compound 15] | 8.91
14 | c1cncc(-c2nc(NCCc3c[nH]c4ccccc34)c3ccccc3n2)c1 [compound 72] | 1.28

Same assay, conditions: marked (inh), inhibitor

Row | IC50 or AC50 (inh) | Compound
15 | Weak (inh) | CN1CCC(Nc2nc(-c3cccnc3)nc3ccccc23)CC1 [compound 45]
16 | Weak (inh) | CN(c1nc(-c2cccnc2)nc2ccccc12)[C@@H]1CCc2ccccc2C1 [compound 88]

Same assay, conditions: marked (inh), inhibitor; read-out: IC50 or AC50 (inh)

Row | IC50 [nM] | Compound
17 | 282 | c1cncc(-c2nc(NCCC3CCCCC3)c3ccccc3n2)c1 [compound 63]
18 | 31600 | c1ccc(CN2CCC(Nc3nc(-c4cccnc4)nc4ccccc34)CC2)cc1 [compound 44]
19 | 1120 | c1ccc(CCNc2nc(-c3cccnc3)nc3ccccc23)nc1 [compound 69]
20 | 4470 | c1cncc(-c2nc(NC3CCC3)c3ccccc3n2)c1 [compound 43]
21 | 1780 | c1ccc(CCCNc2nc(-c3cccnc3)nc3ccccc23)cc1 [compound 52]
22 | 1780 | Cc1ccc(CCNc2nc(-c3cccnc3)nc3ccccc23)cc1 [compound 73]
23 | 891 | c1cncc(-c2nc(NC3CCc4ccccc43)c3ccccc3n2)c1 (stereo not drawn) [compound 67]
24 | 112 | c1ccc(CCNc2nc(-c3cccnc3)nc3ccccc23)cc1 [compound 60]
25 | 141 | Fc1cccc(CCNc2nc(-c3cccnc3)nc3ccccc23)c1 [compound 55]
26 | 5010 | c1cncc(CCNc2nc(-c3cccnc3)nc3ccccc23)c1 [compound 70]
27 | 1580 | c1ccc(CCCCNc2nc(-c3cccnc3)nc3ccccc23)cc1 [compound 53]
28 | 7 | c1cncc(-c2nc(NC3Cc4ccccc4C3)c3ccccc3n2)c1 [compound 1]
29 | 39800 | c1cncc(-c2nc(NC3CC3)c3ccccc3n2)c1 [compound 42]
30 | 7940 | c1cncc(-c2nc(NCC3COc4ccccc4O3)c3ccccc3n2)c1 (stereo not drawn) [compound 20]

Continued, molecule first:

Row | Compound | IC50 [nM]
31 | c1cncc(-c2nc(NC3CCCC3)c3ccccc3n2)c1 [compound 39] | 790
32 | c1cncc(-c2nc(NC3CCCCC3)c3ccccc3n2)c1 [compound 40] | 177
33 | O=C(C1COc2ccccc2O1)N1CCN(c2nc(-c3cccnc3)nc3ccccc23)CC1 (stereo not drawn) [compound 29] | 2240
34 | c1cncc(-c2nc(NC3CCCCCCC3)c3ccccc3n2)c1 [compound 76] | 28
35 | c1cncc(-c2nc(NC34CC5CC(CC(C5)C3)C4)c3ccccc3n2)c1 [compound 79] | 1120
36 | CN(c1nc(-c2cccnc2)nc2ccccc12)C1CCc2ccccc2C1 (stereo not drawn) [compound 75] | 1580
37 | CC1CCCC(Nc2nc(-c3cccnc3)nc3ccccc23)C1 (stereo not drawn) [compound 86] | 79
38 | c1cncc(-c2nc(NC3CCCc4ccccc43)c3ccccc3n2)c1 (stereo not drawn) [compound 68] | 1120
39 | c1cncc(-c2nc(NC3CC4CCC3C4)c3ccccc3n2)c1 (stereo not drawn) [compound 78] | 355
40 | CC1CCCCC1Nc1nc(-c2cccnc2)nc2ccccc12 (stereo not drawn) [compound 48] | 89
41 | CN(c1nc(-c2cccnc2)nc2ccccc12)C1Cc2ccccc2C1 [compound 2] | 2150
42 | c1ccc(CNc2nc(-c3cccnc3)nc3ccccc23)cc1 [compound 51] | 7080
43 | c1cncc(-c2nc(NCC3CCCCC3)c3ccccc3n2)c1 [compound 57] | 354
44 | CC1(C)CCC(Nc2nc(-c3cccnc3)nc3ccccc23)CC1 [compound 85] | 460
45 | CN(c1nc(-c2cccnc2)nc2ccccc12)[C@H]1CCc2ccccc2C1 [compound 84] | 500
46 | c1cncc(-c2nc(N3CCNCC3)c3ccccc3n2)c1 [compound 23] | 35500
47 | CC(C)N1CCC(Nc2nc(-c3cccnc3)nc3ccccc23)CC1 [compound 41] | 35500
48 | FC1(F)CCC(Nc2nc(-c3cccnc3)nc3ccccc23)CC1 [compound 65] | 316
49 | Ic1ccc2c(c1)CC(Nc1nc(-c3cccnc3)nc3ccccc13)C2 (stereo not drawn) [compound 89] | 168
50 | CC1CCC(Nc2nc(-c3cccnc3)nc3ccccc23)CC1 (stereo not drawn) [compound 77] | 20
51 | c1cncc(-c2nc(NC3CCCCCC3)c3ccccc3n2)c1 [compound 58] | 63

Same assay, conditions: marked activator, AC50

Row | Activity AC50 or IC50 (activator) | Compound
52 | Weak activator | CN(c1nc(-c2cccnc2)nc2ccccc12)C1Cc2ccc(C#CCCCCCCCCC(=O)ON3C(=O)CCC3=O)cc2C1 (stereo not drawn) [compound 105]
53 | Weak activator | COC(=O)CCCCCCCCC#Cc1ccc(OCCN(C)c2nc(-c3cccnc3)nc3ccccc23)cc1 [compound 109]
54 | Weak activator | CN(CCOc1ccccc1)c1nc(-c2ccccn2)nc2ccccc12 [compound 143]
55 | Weak activator | CN(c1nc(-c2cccnc2)nc2ccccc12)C1CCCCCCC1 [compound 123]
56 | activator | CN(CCOc1ccc(C#CCCCCCCCCC(=O)ON2C(=O)CCC2=O)cc1)c1nc(-c2cccnc2)nc2ccccc12 [compound 153]
57 | Weak activator | c1cncc(-c2nc(N3CCCOCC3)c3ccccc3n2)c1 [compound 116]
58 | Weak activator | CN(CCOc1ccc(C#CCOCCOCCNc2nc(-c3cccnc3)nc3ccccc23)cc1)c1nc(-c2cccnc2)nc2ccccc12 [compound 110]

Same assay, conditions: marked activator, AC50; read-out: Activity AC50 or IC50 (activator)

Row | AC50 [µM] | Compound
59 | 2.82 | c1cncc(-c2nc(N3CCc4c([nH]c5ccccc45)C3)c3ccccc3n2)c1 [compound 94]
60 | 5.01 | CN(CCCc1ccccc1)c1nc(-c2cccnc2)nc2ccccc12 [compound 119]
61 | 6.31 | c1cncc(-c2nc(N3CCc4[nH]c5ccccc5c4C3)c3ccccc3n2)c1 [compound 93]

Same assay, conditions: marked inhibitor

Row | Activity AC50 or IC50 (inhibitor) | Compound
62 | Weak inhibitor | CN(CCOc1ccccc1)c1nc(-c2ccc(N)cc2)nc2ccccc12 [compound 144]

Same assay, conditions: marked inhibitor, nM indicated; read-out: Activity AC50 or IC50 (inhibitor)

Row | IC50 [nM] | Compound
63 | 7.5 | NCCCCCC(=O)Nc1ccc(-c2nc(NC3Cc4ccccc4C3)c3ccccc3n2)cc1 [compound 147]
64 | 1.95 | O=C(CCCC[C@@H]1SC[C@@H]2NC(=O)N[C@@H]21)NCCOCCOCCOCCOCCC(=O)NCCCCCC(=O)Nc1ccc(-c2nc(NC3Cc4ccccc4C3)c3ccccc3n2)cc1 [compound 156]
65 | 5.6 | CC(C)(C)OC(=O)NCCCCCC(=O)Nc1ccc(-c2nc(NC3Cc4ccccc4C3)c3ccccc3n2)cc1 [compound 145]
66 | 39.8 | CC(C)(C)OC(=O)NCCOCCOCC(=O)Nc1ccc(-c2nc(NC3Cc4ccccc4C3)c3ccccc3n2)cc1 [compound 146]

Same assay, conditions: marked inhibitor; read-out: Activity AC50 or IC50 (inhibitor)

Row | IC50 [nM] | Compound
67 | 2510 | CC(COc1ccccc1)Nc1nc(-c2cccnc2)nc2ccccc12 (stereo not drawn) [compound 97]
68 | 11200 | c1ccc(COCCNc2nc(-c3cccnc3)nc3ccccc23)cc1 [compound 140]
69 | 141 | c1cncc(-c2nc(NCCCCCCCCCCNc3nc(-c4cccnc4)nc4ccccc34)c3ccccc3n2)c1 [compound 108]
70 | 2240 | CCCCCCCCNc1nc(-c2cccnc2)nc2ccccc12 [compound 95]
71 | 5010 | CC(CNc1nc(-c2cccnc2)nc2ccccc12)Oc1ccccc1 (stereo not drawn) [compound 92]
72 | 2820 | c1ccc(OCCCNc2nc(-c3cccnc3)nc3ccccc23)cc1 [compound 91]
73 | 11200 | CN(CCOCc1ccccc1)c1nc(-c2cccnc2)nc2ccccc12 [compound 141]

The next lines start with the molecule.

Row | Compound | IC50 [nM]
74 | Nc1ccc(-c2nc(NC3Cc4ccccc4C3)c3ccccc3n2)cc1 [compound 142] | 7.1
75 | Oc1ccc2c(c1)C[C@@H](Nc1nc(-c3cccnc3)nc3ccccc13)CC2 [compound 98] | 79
76 | CC(C)(C)OC(=O)NCCC#Cc1ccc2c(c1)CC(Nc1nc(-c3cccnc3)nc3ccccc13)C2 (stereo not drawn) [compound 96] | 560
77 | NCCC#Cc1ccc2c(c1)CC(Nc1nc(-c3cccnc3)nc3ccccc13)C2 (stereo not drawn) [compound 99] | 891
78 | Brc1ccc2c(c1)CC(Nc1nc(-c3cccnc3)nc3ccccc13)C2 (stereo not drawn) [compound 100] | 178
